# Test system: environmental isolates
# Experiment: Effect of Polymyxin B, Acriflavine HCl and Ceftazidime on environmental isolates
# Format: cell-based
# Conditions: used together in the Selective medium
# Protocol: Nineteen non-Listeria organisms isolated from environmental sponges from meat and dairy manufacturing facilities were inoculated separately into Tryptic Soy broth (TSB, Difco) and incubated for 24 h at 30° C. The isolates were screened for growth in Selective and Non-Selective media by monitoring absorbance via a spectrophotometer. 900 μl of test media and either 100 μl of culture or Butterfield's Buffer (International BioProducts) were added to a cuvette and incubated at 30° C. Absorbance readings were taken at 660 nm on a spectrophotometer (Shimadzu UV160U) at To, 2 h, 4 h, and 6 h and compared to the corresponding blank cuvette with buffer. Growth was scored by absorbance readings.
# The Non-Selective medium consisted of Universal Preenrichment Broth (UPB, Difco) with 0.4% Yeast Extract (YE, Difco). The Selective medium consisted of Universal Preenrichment Broth (UPB, Difco) with 0.4% Yeast Extract (YE, Difco), 0.001% Polymymin B, 0.0005% Acriflavine HCl, and 0.002% Ceftazidime.
# Several environmental organisms screened via spectrophotometer were selected to test in mixed culture with Listeria. Environmental isolates were inoculated separately into TSB and incubated for 24 h at 30° C. The growth level was determined by serial dilutions plated on Tryptic Soy agar (TSA, Difco) and incubated at 30° C. for 24 h. Based on the cell counts, the culture was diluted in Butterfield's Buffer and a volume of the diluted culture targeting an initial cell count of 1000 CFU/mL was inoculated into the test media.
# 30 mL of Non-Selective or Selective medium was added to 10 ml of Butterfield's Buffer to simulate the addition of media to environment sponge. A Non-Selective and Selective medium was inoculated with Listeria culture alone, environmental isolate alone, and Listeria and environment isolate combined. The media were incubated in a water bath at 30° C. Serial dilutions of inoculated media were collected at To and 8 h and plated on Oxford Media Base and a differential media particular to the environmental isolate being tested (see Table 2). […]
row,Compound,Effectiveness as selective agents against environmental isolates (in words)
1,Acriflavine HCl,effective selective agents against many environmental isolates
2,CC(C)(O/N=C(\C(=O)N[C@@H]1C(=O)N2C(C(=O)[O-])=C(C[n+]3ccccc3)CS[C@H]12)c1csc(N)n1)C(=O)O [Ceftazidime],effective selective agents against many environmental isolates
3,Polymyxin B,effective selective agents against many environmental isolates

# — patent publication US20060286625A1, “Rapid enrichment for Listeria” (Kraft Foods Holdings, Inc., priority 2005, published 2006)
